Assay results published in publication PMC5378956, “Inhibition of delta-secretase improves cognitive functions in mouse models of Alzheimer's disease” (Nature Communications, 2017).

Assays:
primary neurons = test: LDH release of primary neurons after OGD; type: cell-based, mouse; conditions: wild-type neurons
GAPDH = target: T1, GAPDH (Mus musculus, UniProt P16858); test: GAPDH activity assay in primary neurons; type: cell-based
T1 construct: GAPDH activity in primary neurons; endogenous in cells; host or cells: primary neurons (mouse cortical)
T1 sequence (P16858 whole entry): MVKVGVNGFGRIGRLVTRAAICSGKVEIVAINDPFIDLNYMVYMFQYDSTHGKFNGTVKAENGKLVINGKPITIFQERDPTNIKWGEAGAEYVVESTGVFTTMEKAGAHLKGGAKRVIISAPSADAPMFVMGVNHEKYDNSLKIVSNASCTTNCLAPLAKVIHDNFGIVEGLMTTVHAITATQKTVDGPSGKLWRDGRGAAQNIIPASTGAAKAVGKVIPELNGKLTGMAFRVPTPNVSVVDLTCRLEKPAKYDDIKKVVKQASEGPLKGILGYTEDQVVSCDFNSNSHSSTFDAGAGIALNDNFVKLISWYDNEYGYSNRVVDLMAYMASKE
Procedure: GAPDH activity was assessed using the GAPDH Activity Assay Kit (Biovision) according to the manufacture's instructions.

δ-secretase [1] = target: δ-secretase (Mus musculus, UniProt O89017); test: Cleavage of GST-tau and GFP-APP by kidney lysates, Western blot; conditions: kidney lysates with GST-tau or GFP-APP
Sequence of δ-secretase (Mus musculus, UniProt O89017) (O89017 18-435): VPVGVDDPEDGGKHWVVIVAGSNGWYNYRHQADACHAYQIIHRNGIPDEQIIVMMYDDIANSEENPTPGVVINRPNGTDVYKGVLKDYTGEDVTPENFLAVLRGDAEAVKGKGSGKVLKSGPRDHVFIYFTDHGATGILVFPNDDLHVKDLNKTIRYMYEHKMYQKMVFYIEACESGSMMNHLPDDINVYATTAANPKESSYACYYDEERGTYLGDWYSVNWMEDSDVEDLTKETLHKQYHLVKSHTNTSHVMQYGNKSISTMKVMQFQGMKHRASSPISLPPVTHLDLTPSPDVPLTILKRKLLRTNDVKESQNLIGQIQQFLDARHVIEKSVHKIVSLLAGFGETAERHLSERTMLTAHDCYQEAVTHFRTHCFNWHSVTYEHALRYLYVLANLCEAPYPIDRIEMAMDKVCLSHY

caspase-8 = target: T2, caspase-8 (Homo sapiens, UniProt Q14790); test: IC50 assay with recombinant caspase-8; type: biochemical; conditions: for IC50: mean±s.d.
T2 construct: purchased Millipore (Billerica, MA)
T2 sequence (Q14790 217-374 limits assumed, species assumed): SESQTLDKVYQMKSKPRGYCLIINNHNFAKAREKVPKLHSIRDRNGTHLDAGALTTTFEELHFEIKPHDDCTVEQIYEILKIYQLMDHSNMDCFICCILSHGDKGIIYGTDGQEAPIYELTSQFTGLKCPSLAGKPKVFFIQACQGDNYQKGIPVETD
T2 sequence (Q14790 385-479 limits assumed, species assumed): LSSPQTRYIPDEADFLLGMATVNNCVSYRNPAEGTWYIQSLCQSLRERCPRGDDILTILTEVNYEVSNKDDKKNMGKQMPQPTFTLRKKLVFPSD
Procedure: (§1) Caspase-3 and 8 – The enzyme was pre-incubated with inhibitor in assay buffer (100 mM HEPES pH 7.4, 0.1% CHAPS, 10% Sucrose) for 10 min at 37 °C.
(§2) To determine the IC50 values of the compounds towards δ-secretase, cathepsin-S, cathepsin-L, caspase-3 and caspase-8, purified recombinant enzyme was incubated in appropriate assay buffers in the presence of increasing concentrations of inhibitors. The formation of fluorescent product was monitored in duplicate reactions and the data were fit to appropriate equations to calculate the IC50 values.

cathepsin-S = target: T3, cathepsin-S (Homo sapiens, UniProt P25774); test: IC50 assay with recombinant cathepsin-S; type: biochemical; conditions: for IC50: mean±s.d.
T3 construct: purchased Athens Research and Technology (Athens, GA)
T3 sequence (P25774 115-331, species assumed): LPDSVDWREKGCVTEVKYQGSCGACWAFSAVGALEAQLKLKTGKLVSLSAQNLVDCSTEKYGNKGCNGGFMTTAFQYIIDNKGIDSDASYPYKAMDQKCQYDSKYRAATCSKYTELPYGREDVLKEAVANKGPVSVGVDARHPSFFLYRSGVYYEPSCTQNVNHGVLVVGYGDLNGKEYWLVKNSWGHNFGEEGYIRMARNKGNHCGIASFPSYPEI
Procedure: Cathepsin-S – 100 nM enzyme was pre-incubated with inhibitor in assay buffer (100 mM NaH2PO4 pH 6.5, 100 mM NaCl) for 10 min at 37 °C. The reaction was initiated on addition of 25 μM substrate (Boc-Val-Leu-Lys-AMC (Bachem).
as §2

caspase-3 = target: T4, caspase-3 (Homo sapiens, UniProt P42574); test: IC50 assay with recombinant caspase-3; type: biochemical; conditions: for IC50: mean±s.d.
T4 construct: purchased Millipore (Billerica, MA)
T4 sequence (P42574 29-175 limits assumed): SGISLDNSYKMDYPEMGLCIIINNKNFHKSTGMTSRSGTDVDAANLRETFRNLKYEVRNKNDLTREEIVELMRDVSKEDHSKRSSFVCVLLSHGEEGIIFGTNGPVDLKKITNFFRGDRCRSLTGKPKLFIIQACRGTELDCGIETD
T4 sequence (P42574 176-277 limits assumed): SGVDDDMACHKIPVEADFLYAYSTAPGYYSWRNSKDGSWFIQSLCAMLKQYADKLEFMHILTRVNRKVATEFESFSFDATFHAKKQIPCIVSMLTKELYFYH
Procedure: as §1, §2

HepG2 cells = test: COMET assay and micronucleus assay in HepG2 cells; type: cell-based, human; conditions: 50 μM, 24 h
Procedure: Human hepatocellular carcinoma HepG2 cells were used to determine the genotoxicity of the compounds. The Comet Assay (single cell gel electrophoresis) was performed according to the protocol provided in the Trevigen Kit (4250-050-K). Briefly, cells were pre-treated for 24 h with vehicle control or 50 μM compounds. Cells were harvested, embedded in low-melt agarose and submerged in Lysis Buffer for 45 min at 4 °C. After incubation in Alkaline Unwinding Solution (300 mM NaOH, 1 mM EDTA) for 20 min, the cells were subjected to electrophoresis in Alkaline Unwinding Solution at 300 mA for 30 min. Slides were washed with 70% ethanol, dried and stained with SYBR Green for 30 min at room temperature. Nicked DNA was measured as percentage of tail DNA. One hundred comets were scored for each sample[39].
HepG2 cells were treated with vehicle or 50 μM compound for 24 h. Cells were washed with PBS, followed byincubation at a ratio of 1:19 in a hypotonic solution (75 mM KCl/0.9% NaCl) for 10 min at 37 °C. Next, the cells were fixed with methanol:glacial acetic acid (3:1) for 15 min at 37 °C, then rinsed and dried. Cells were stained with DAPI (2 μg ml^−1) for 30 min in the dark at room temperature, rinsed with water, dried and mounted with glycerol. One thousand cells per dish were analysed for each experiment; three independent experiments were performed.

δ-secretase [2] = target: T5, δ-secretase (Homo sapiens, UniProt Q99538); test: IC50 assay with purified recombinant δ-secretase (AEP), substrate Cbz-Ala-Ala-Asn-AMC; type: biochemical; conditions: purified recombinant enzyme; mean±s.d.; read-out: IC50 AEP (δ-secretase)
T5 construct: tested with purified active δ-secretase, IC50 values for the top 8 candidates were calculated; purchased Sino Biological (Beijing, China)
T5 sequence (Q99538 18-323 limits assumed): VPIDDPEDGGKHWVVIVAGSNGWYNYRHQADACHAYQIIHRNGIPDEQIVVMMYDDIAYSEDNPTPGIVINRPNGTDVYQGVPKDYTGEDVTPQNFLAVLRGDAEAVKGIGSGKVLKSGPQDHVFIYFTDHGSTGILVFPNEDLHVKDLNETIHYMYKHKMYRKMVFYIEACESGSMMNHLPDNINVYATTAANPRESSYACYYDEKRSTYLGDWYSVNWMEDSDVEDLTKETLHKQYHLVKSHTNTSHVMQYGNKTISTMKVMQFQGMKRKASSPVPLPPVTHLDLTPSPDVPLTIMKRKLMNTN
Procedure: δ-secretase – 50 nM enzyme was pre-incubated with inhibitor in assay buffer (50 mM Sodium Citrate pH 5.5, 0.1% CHAPS, 60 mM Na2HPO4, 1 mM EDTA) for 10 min at 37 °C. The reaction was initiated on addition of 10 μM Cbz-Ala-Ala-Asn-AMC (Bachem).
as §2

cathepsin-L = cathepsin-L (Homo sapiens, UniProt P07711); test: IC50 assay with cathepsin-L; type: biochemical; conditions: for IC50: mean±s.d.
Sequence of cathepsin-L (P07711 114-333, species assumed): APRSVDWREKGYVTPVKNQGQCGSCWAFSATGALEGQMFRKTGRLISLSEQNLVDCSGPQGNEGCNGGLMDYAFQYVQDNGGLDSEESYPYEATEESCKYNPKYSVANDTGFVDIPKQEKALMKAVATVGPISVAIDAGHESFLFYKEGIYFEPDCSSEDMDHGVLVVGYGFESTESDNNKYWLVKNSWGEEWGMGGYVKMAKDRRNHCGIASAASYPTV
Procedure: Cathepsin-L – 100 nM enzyme was pre-incubated with inhibitor in assay buffer (100 mM Sodium Acetate pH 5.5, 1 mM EDTA) for 10 min at 37 °C. The reaction was initiated on addition of 25 μM substrate (D-Val-Leu-Lys-AMC (Bachem).
as §2

Caco-2 monolayer = Caco-2 monolayer permeability screen; conditions: 10 µM, 2 h
Procedure: Supplementary Table 3: Caco-2 permeability and BBB-PAMPA permeability
For CaCo-2 permeability assay, cells were incubated with 10 µM of these reagents in
buffers for 2 h, and the receiver side buffer is removed for analysis by LC/MS/MS. Efflux […]
LLOQ: Lower Limit of Quantification; Papp: apparent permeability.

CYP2C9 = CYP2C9 (Homo sapiens, UniProt P11712); test: CYP inhibition screening in microsomes; conditions: pH 7.4
Sequence of CYP2C9 (P11712 whole entry): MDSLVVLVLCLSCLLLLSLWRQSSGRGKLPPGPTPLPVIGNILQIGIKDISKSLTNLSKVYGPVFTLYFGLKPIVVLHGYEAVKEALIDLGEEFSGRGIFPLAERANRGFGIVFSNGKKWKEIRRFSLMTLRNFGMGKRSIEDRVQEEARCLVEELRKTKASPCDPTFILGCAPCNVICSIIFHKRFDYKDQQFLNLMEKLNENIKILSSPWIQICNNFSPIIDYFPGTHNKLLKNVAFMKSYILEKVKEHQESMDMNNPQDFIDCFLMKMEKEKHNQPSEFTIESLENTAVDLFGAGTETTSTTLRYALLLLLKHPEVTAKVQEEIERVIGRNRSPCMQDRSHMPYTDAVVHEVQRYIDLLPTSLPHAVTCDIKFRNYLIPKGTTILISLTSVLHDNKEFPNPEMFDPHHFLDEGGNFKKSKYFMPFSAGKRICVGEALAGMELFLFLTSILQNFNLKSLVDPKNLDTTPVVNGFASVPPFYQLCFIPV

[3] = target: T6, δ-secretase in Pala cells (Homo sapiens, UniProt Q99538); test: δ-secretase inhibition in intact Pala cells
T6 sequence (Q99538 18-433): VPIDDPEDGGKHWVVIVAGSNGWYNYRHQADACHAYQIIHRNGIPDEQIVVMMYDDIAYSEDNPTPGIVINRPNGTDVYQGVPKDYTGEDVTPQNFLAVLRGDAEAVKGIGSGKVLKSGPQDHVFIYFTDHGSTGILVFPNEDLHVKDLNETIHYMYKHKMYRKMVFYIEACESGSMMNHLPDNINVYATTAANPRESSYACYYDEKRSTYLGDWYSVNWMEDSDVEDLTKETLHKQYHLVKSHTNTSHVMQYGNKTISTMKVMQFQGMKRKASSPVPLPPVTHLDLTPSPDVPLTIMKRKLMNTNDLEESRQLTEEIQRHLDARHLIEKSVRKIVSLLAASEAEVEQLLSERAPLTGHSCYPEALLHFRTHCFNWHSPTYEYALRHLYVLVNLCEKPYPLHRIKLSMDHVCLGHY
Procedure: Cells were collected, washed twice with PBS and lysed in Lysis Buffer (20 mM citric acid, 60 mM disodium hydrogen orthophosphate, 1 mM EDTA, 0.1% CHAPS, pH 5.8). […] Data were analysed with GraFit version 5.0.11 software package.
δ-secretaseactivity assay.

CYP2C19 = CYP2C19 (Homo sapiens, UniProt P33261); test: CYP inhibition screening in microsomes; conditions: pH 7.4
Sequence of CYP2C19 (P33261 whole entry): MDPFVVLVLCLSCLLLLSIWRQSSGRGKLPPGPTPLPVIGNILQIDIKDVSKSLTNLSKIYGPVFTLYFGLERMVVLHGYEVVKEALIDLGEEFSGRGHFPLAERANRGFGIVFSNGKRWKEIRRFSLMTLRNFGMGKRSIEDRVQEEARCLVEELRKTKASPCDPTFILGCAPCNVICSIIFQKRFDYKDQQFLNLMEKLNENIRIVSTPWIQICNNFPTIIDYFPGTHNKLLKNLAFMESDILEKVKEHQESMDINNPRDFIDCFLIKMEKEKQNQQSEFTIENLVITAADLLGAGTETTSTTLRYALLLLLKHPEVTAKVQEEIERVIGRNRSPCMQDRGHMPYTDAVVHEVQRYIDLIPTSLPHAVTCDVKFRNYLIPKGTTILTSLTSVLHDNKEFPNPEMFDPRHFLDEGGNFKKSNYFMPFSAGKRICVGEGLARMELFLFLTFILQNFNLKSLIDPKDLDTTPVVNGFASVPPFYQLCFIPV

CYP3A4 = CYP3A4 (Homo sapiens, UniProt P08684); test: CYP inhibition screening in microsomes; conditions: pH 7.4, probe midazolam
Sequence of CYP3A4 (P08684 whole entry): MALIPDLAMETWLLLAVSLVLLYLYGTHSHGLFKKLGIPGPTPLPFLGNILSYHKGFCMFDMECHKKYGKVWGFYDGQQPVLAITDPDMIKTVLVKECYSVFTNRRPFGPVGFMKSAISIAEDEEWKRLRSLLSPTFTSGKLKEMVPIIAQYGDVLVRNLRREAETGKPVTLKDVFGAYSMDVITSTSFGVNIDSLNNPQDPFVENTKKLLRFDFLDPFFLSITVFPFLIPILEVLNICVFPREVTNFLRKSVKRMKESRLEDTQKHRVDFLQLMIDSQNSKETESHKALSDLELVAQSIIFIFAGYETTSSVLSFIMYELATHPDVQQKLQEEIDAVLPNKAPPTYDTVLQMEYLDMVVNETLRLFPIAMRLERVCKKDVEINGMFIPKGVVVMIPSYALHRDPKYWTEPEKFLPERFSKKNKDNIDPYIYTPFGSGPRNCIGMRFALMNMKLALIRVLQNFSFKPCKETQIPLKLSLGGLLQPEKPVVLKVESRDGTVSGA

CYP2D6 = CYP2D6 (Homo sapiens, UniProt P10635); test: CYP inhibition screening in microsomes; conditions: pH 7.4
Sequence of CYP2D6 (P10635 whole entry): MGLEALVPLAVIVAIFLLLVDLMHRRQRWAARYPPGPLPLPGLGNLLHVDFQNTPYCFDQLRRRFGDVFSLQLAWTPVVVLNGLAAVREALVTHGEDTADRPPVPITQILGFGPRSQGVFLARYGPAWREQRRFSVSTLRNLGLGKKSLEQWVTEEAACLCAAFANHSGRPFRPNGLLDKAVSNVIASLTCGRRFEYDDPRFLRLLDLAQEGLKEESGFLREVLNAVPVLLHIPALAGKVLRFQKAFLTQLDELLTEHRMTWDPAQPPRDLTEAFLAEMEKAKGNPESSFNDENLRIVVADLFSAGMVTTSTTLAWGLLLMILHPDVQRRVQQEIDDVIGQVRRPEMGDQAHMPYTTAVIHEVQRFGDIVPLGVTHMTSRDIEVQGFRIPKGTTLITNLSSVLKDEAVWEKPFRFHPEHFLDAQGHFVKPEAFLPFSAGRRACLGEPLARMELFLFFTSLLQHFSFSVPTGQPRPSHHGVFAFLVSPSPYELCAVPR

CYP1A2 = target: T7, CYP1A2 (Homo sapiens, UniProt P05177); test: CYP inhibition screening in microsomes; conditions: pH 7.4
T7 sequence (P05177 1-516): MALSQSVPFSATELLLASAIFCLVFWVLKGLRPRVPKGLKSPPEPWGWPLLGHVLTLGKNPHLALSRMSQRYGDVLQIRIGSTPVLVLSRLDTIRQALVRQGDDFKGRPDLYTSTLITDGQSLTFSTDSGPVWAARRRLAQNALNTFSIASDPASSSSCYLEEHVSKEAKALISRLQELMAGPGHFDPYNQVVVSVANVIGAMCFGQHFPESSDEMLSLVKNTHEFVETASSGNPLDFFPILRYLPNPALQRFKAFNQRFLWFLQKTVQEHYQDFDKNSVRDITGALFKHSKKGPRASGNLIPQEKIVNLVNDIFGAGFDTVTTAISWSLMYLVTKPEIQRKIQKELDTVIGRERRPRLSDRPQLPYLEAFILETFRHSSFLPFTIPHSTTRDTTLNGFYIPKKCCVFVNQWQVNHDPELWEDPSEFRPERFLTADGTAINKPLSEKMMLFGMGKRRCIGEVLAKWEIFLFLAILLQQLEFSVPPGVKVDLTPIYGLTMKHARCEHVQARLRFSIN

CYP3A = test: CYP inhibition screening in microsomes; conditions: human, pH 7.4, probe testosterone
δ-secretase [4] = target: T5, δ-secretase; test: DTT and L-cysteine reversibility of δ-secretase inhibition; type: biochemical; conditions: 10 mM DTT or L-cysteine, inhibitor at its IC50

CC(C)[C@H]1CC[C@@]2(CO2)[C@H]2C(=O)OCC(C(=O)O)=C[C@H]12 [KA, koningic acid, reference compound]
neuronal injury (LDH in medium) induced by OGD (primary neurons): neither compound 11d15 nor KA showed any neuroprotective effect | GAPDH inhibition (GAPDH; 2 μM): robustly blocked GAPDH | GAPDH inhibition (GAPDH; 50 μM): robustly blocked GAPDH | cleavage of tau and APP by δ-secretase in vitro (δ-secretase [1]): did not affect the cleavage of tau and APP

CN(C)c1ccc(N2C(=O)C=CC2=O)cc1 [compound 22]
IC50 (caspase-8): > 100 µM | IC50 (cathepsin-S): > 100 µM | IC50 (caspase-3): > 100 µM | genotoxicity (COMET and micronucleus assay) (HepG2 cells): show genotoxicity | IC50 (δ-secretase [2]): 0.21 ± 0.01 µM | IC50 (cathepsin-L): > 100 µM

CCN(CC)c1ccc(CN2CCc3nc(C)[nH]c(=O)c3C2)c(OC)c1 [compound 64]
selectivity for δ-secretase compared to caspase-8 (caspase-8): over 40 fold | IC50 (caspase-8): > 100 µM | A->B Papp (Caco-2 monolayer): < LLOQ | B->A Papp (Caco-2 monolayer): < LLOQ | inhibition at 10 min, 3 µM (CYP2C9): 4.6% | inhibition at 10 min, 10 µM (CYP2C9): 7.9% | IC50 [3]: 0.29 ± 0.21 µM | inhibition at 10 min, 3 µM (CYP2C19): 31.6% | inhibition at 10 min, 10 µM (CYP2C19): 20.4% | inhibition at 10 min, 3 µM (CYP3A4): 0.6% | inhibition at 10 min, 10 µM (CYP3A4): 10.1% | selectivity for δ-secretase compared to cathepsin-S (cathepsin-S): over 40 fold | IC50 (cathepsin-S): > 100 µM | inhibition at 10 min, 3 µM (CYP2D6): 34.6% | inhibition at 10 min, 10 µM (CYP2D6): 58.3% | selectivity for δ-secretase compared to caspase-3 (caspase-3): about 6 fold | IC50 (caspase-3): 15.4 ± 7.04 µM | inhibition at 10 min, 3 µM (CYP1A2): 23.7% | inhibition at 10 min, 10 µM (CYP1A2): 22.2% | IC50 (δ-secretase [2]): 2.37 µM | selectivity for δ-secretase compared to cathepsin-L (cathepsin-L): over 40 fold | IC50 (cathepsin-L): > 100 µM | inhibition at 10 min, 3 µM (CYP3A): 1.5% | inhibition at 10 min, 10 µM (CYP3A): -0.1%

N#CSc1cnc(N)s1 [compound 10]
IC50 (caspase-8): > 200 µM | IC50 [3]: 7.86 ± 5.67 µM | IC50 towards δ-secretase in Pala cells ([3]; intact cells, 2 h incubation, mean±s.d.): slightly larger IC50 values | IC50 (cathepsin-S): > 200 µM | IC50 (caspase-3): 44.6 ± 5.01 µM | IC50 (δ-secretase [2]): 0.71 ± 0.05 µM | IC50 (cathepsin-L): 3.79 ± 0.29 µM | recovery of δ-secretase activity on addition of reducing agents (δ-secretase [4]): regained a substantial amount of activity
